Data as given in patent US20190117657A1, “METHOD OF INHIBITING HIGH FAT DIET-RELATED CONDITIONS” (South Australian Health and Medical Research Institute …, priority 2016, published 2019).

Molecular target: MNK1 (Homo sapiens, UniProt Q9BUB5)
Assay: not given
Conditions: cited from earlier work

Sequence of MNK1 (Q9BUB5 whole entry, species assumed): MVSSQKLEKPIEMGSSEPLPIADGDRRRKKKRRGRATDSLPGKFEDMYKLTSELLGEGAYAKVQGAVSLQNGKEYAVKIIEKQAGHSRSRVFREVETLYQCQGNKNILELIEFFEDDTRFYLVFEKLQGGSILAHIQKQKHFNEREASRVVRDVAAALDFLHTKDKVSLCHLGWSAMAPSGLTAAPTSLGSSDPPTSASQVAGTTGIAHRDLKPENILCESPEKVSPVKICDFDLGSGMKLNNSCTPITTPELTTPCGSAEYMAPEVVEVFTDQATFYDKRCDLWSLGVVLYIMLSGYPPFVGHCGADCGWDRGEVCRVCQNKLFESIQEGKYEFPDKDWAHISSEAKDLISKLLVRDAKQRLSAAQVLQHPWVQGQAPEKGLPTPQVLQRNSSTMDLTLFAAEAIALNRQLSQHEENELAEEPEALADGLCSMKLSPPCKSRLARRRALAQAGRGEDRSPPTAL

SMILES | IC50 [nM]
COC(=O)[C@@]1(C)C[C@@]2(C)O[C@]1(C)n1c3ccccc3c3c4c(c5c6ccccc6n2c5c31)C(=O)NC4 [CGP052088] | 70

Tested on: other protein kinases
Assay: not given
Conditions: cited from earlier work

SMILES | inhibition of other protein kinases
CC(=O)C1=C(O)C=C2Oc3c(C(N)=O)c(O)cc(O)c3[C@]2(C)C1=O [cercosporamide, (9aS)-8-Acetyl-9,9a-dihydro-1,3,7-trihydroxy-9a-methyl-9-oxo-4-dibenzofurancaboxamide] | inhibit other protein kinases in addition to the MNKs

Tested on: MNKs
Assay: eIF4E phosphorylation (P-eIF4E immunoblot) in 3T3-L1 cells as read-out of MNK activity
Assay type: cell-based
Conditions: not given
Description: Similar data obtained in three replicate experiments.
The term “MNK inhibitor” as used herein is intended to refer to any compound that reduces the biological activity of MNK1 (including reducing the biological activity of one or both of splice variants MNK1 a and MNK1b) and/or MNK2 (including reducing the biological activity of one or both of splice variants MNK2a and MNK2b), including by reducing the amount of MNK1 and/or MNK2 expressed. For example, the MNK inhibitor may be a small organic molecule (also referred to as a “small molecule” herein), a peptide antagonist, an inhibitory antibody or fragment thereof, an interfering nucleotide molecule, an aptamer or other MNK inhibitor that inhibits the expression or biological activity as would be understood by those skilled in the art. The biological activity of MNK1 and MNK2 can be measured in a variety of ways, for example, by measuring phosphorylation of its substrate eIF4E to P-eIF4E using any suitable method known to those skilled in the art, for example, by performing an immunoblot or ELISA utilising a specific anti-P-eIF4E antibody, for example, the anti-phospho eIF4E (Ser209) antibody distributed by Merck Millipore, Catalogue No. 07-823 (Merck Millipore, Billerica, Mass., United States of America). […] Those skilled in the art will be aware of how to conduct suitable controls when measuring P-eIF4E levels. The MNK1 and/or MNK2 bioactivity can otherwise be measured using a cellular assay that can detect levels of MNK1 and/or MNK2 bioactivity. Antibodies that specifically detect phosphorylated MNK could also be used, for example, anti-P-MNK1 (Phospho-Mnk1 (Thr197/202) Antibody #2111; Cell Signaling Technology Inc, Danvers, Mass., United States of America). Additionally, those skilled in the art will appreciate that the MNK inhibitors should be safe for use for its intended purpose.
Tissues were harvested in RIPA lysis buffer containing 50 mM TrisHCl, pH 7.4, 150 mM NaCl, 1% Triton X-100, 0.1% sodium deoxycholate, 0.1% sodium dodecyl sulfate, 1 mM ethylenediaminetetraaacteic acid (EDTA), 50 mM β-glycerolphosphate, 0.5 mM NaVO3, 0.1% 2-mercaptoethanol and protease inhibitors (Roche). After lysis, insoluble material was removed by centrifugation at 12,000 g for 10 min at 4° C. Protein content was determined by the Bradford protein assay (Bio-Rad). Immunoblotting was performed as described in Liu et al. (2014). Blots were visualised using a LI-COR Odyssey® Quantitative Imaging System. Primary antibodies as indicated in Table 5 were from Cell Signaling Technologies, except for anti-P-eIF4E (Merck Millipore). Secondary antibodies were obtained from Thermo Fisher Scientific Inc. (Waltham, Mass., United States of America) and used at 1:20,000 dilution.
MNKs are the only kinases known to phosphorylate eIF4E, and accordingly, the phosphorylation of eIF4E (P-eIF4E) provides a direct read-out of MNK biological activity.
Since eIF4E is only phosphorylated by the MNKs, its phosphorylation status is a reliable read-out of intracellular MNK activity. […] MNK2 is the main MNK in 3T3-L1 cells and in adipose tissue (Moore et al., 2016). In additional studies, tests were conducted to assess the effect of the MNK-I2 inhibitor on the induction of differentiation markers in 3T3-L1 cells.

SMILES | Comments (ability to inhibit MNKs, eIF4E phosphorylation)
Cc1c(C(=O)NCCc2c[nH]cn2)sc2ncnc(Nc3ccc(F)cc3OC(C)C)c12 [JX-MNK-7S] | Good activity
COc1cc(F)ccc1Nc1ncnc2sc(C(=O)N3CCCCC3)c(C)c12 [MNK-5J] | inactive
COc1cc(F)ccc1Nc1ncnc2sc(C(=O)N3CCOCC3)c(C)c12 [MNK-5K] | Almost inactive
COc1cc(F)ccc1Nc1ncnc2sc(C(=O)NCCCN3CCCC3)c(C)c12 [MNK-5M] | Good activity
COc1cc(F)ccc1Nc1ncnc2sc(C(=O)NCCCN3CCOCC3)c(C)c12 [MNK-5O] | Good activity
COc1cc(F)ccc1Nc1ncnc2sc(C(=O)NCC(C)(C)CN(C)C)c(C)c12 [MNK-5P] | Moderate activity
COc1cc(F)ccc1Nc1ncnc2sc(C(=O)NCCc3c[nH]cn3)c(C)c12 [MNK-5S] | Moderate activity
COc1cc(F)ccc1Nc1ncnc2sc(C(=O)NCCc3ccncc3)c(C)c12 [MNK-5U] | Moderate activity
COc1cc(F)ccc1Nc1ncnc2sc(C(=O)N3CCN(C)CC3)c(C)c12 [MNK-5V] | Almost inactive
COc1cc(F)ccc1Nc1ncnc2sc(C(=O)NC3CCCCC3)c(C)c12 [MNK-5W] | Moderate activity
COc1cc(F)ccc1Nc1ncnc2sc(C(=O)N3CCCC3)c(C)c12 [MNK-5X] | Almost inactive
Cc1c(C(=O)OCCO)sc2ncnc(Nc3ccc(F)cc3OC(C)C)c12 [MNK-7F] | Weak activity
Cc1c(C(=O)NCCCO)sc2ncnc(Nc3ccc(F)cc3OC(C)C)c12 [MNK-7I] | Partially active
Cc1c(C(=O)N2CCCCC2)sc2ncnc(Nc3ccc(F)cc3OC(C)C)c12 [MNK-7J] | inactive
Cc1c(C(=O)N2CCOCC2)sc2ncnc(Nc3ccc(F)cc3OC(C)C)c12 [MNK-7K] | Almost inactive
Cc1c(C(=O)OCCCO)sc2ncnc(Nc3ccc(F)cc3OC(C)C)c12 [MNK-7L] | Partial activity
Cc1c(C(=O)NCCCN2CCOCC2)sc2ncnc(Nc3ccc(F)cc3OC(C)C)c12 [MNK-7O] | Good activity
Cc1c(C(=O)NCC(C)(C)CN(C)C)sc2ncnc(Nc3ccc(F)cc3OC(C)C)c12 [MNK-7P] | Good activity
Cc1c(C(=O)OCCc2ccccc2)sc2ncnc(Nc3ccc(F)cc3OC(C)C)c12 [MNK-7T] | inactive
Cc1c(C(=O)NCCc2ccncc2)sc2ncnc(Nc3ccc(F)cc3OC(C)C)c12 [MNK-7U] | Good activity
Cc1c(C(=O)N2CCN(C)CC2)sc2ncnc(Nc3ccc(F)cc3OC(C)C)c12 [MNK-7V] | Partial activity
Cc1c(C(=O)NC2CCCCC2)sc2ncnc(Nc3ccc(F)cc3OC(C)C)c12 [MNK-7W] | Partial activity
Cc1c(C(=O)N2CCCC2)sc2ncnc(Nc3ccc(F)cc3OC(C)C)c12 [MNK-7X] | Partial actvitiy

Tested on: 3T3-L1 cells
Assay: Induction of adipogenic gene mRNAs in differentiating 3T3-L1 cells (RT-qPCR)
Assay type: cell-based
Conditions: 10 μM, 3T3-L1 cells
Protocol: Total RNA was isolated from tissues (frozen at the time of sampling) using Trizol reagent (Sigma-Aldrich) according to the manufacturer's instructions. RNA concentrations were determined by absorbance at 260 nm, while quality and integrity were evaluated via 260/230 and 260/280 ratios using a NanoDrop spectrophotometer (Thermo Fisher Scientific). RT-real time PCR amplification was carried out using the ImProm-II Reverse Transcription System (A3800; Promega, Madison, Wis., United States of America) with random primers following the manufacturer's protocol. Subsequently, real-time quantitative (q) PCR was performed using primer sequences described in Supplemental Table S1 of Moore CEJ et al., 2016, the content of which is hereby incorporated by reference in its entirety). The comparative CT method was used to measure the amplification of target mRNA levels compared with […] (B2M) mRNA. In FIG. 1A, the relative amount of each transcript was determined using the equation 2^−dCt, where dCt=(Ct target gene-Ct ref gene), and Ct=cycle threshold.
(§1) For induction of 3T3-L1 (fibroblast) cell differentiation, pre-adipocytes were grown to 2 days post-confluence in DMEM supplemented with 10% FBS (day 0) and the medium was changed to DMEM supplemented with 10% FBS, insulin (167 nM), dexamethasone (0.5 μM), isobutylmethylxanthine (IBMX) (0.5 mM) and rosiglitazone (2 μM). After 48 h, the medium was replaced with medium containing DMEM supplemented with 10% (v/v) FBS and 167 nM insulin. On day 4, after inducing differentiation, and thereafter, the cells were cultured in DMEM with 10% FBS. The maintenance medium was changed every 48 h until the cells were utilised for experimentation (9 days from the initiation of differentiation).
In order to study the role of MNK2 in adipocyte differentiation, 3T3-L1 cells were used in a similar manner to that described in Example 1. […]

SMILES | induction of adipogenic genes such as PPARγ (mRNA)
CC(=O)C1=C(O)C=C2Oc3c(C(N)=O)c(O)cc(O)c3[C@]2(C)C1=O [cercosporamide, (9aS)-8-Acetyl-9,9a-dihydro-1,3,7-trihydroxy-9a-methyl-9-oxo-4-dibenzofurancaboxamide] | impaired the induction of genes such as PPARγ

Tested on: 3T3-L1 cells
Assay: Lipid accumulation in differentiating 3T3-L1 cells (Oil Red O / triglyceride)
Assay type: cell-based
Conditions: 10 μM, 3T3-L1 cells
Protocol: as §1
Assessment of intracellular triglyceride levels was performed using Oil Red O staining as described by others (Smith et al., 1988). Briefly, on day 9 of differentiation of the 3T3-L1 cells were fixed in 10% formalin for 1 hour. […] For quantification, cells were washed extensively with water to remove unbound dye, and 1 ml isopropanol was added to the stained 6-well culture plate. After 5 min, the absorbance of the oil red extract at 510 nm was measured, with an increased absorbance indicative of an increased lipid level within the cells.
The amount of tissue-released triglyceride (TAG) was measured using a Triglyceride Quantification Kit (Abcam, ab65336).

SMILES | lipid accumulation
CC(=O)C1=C(O)C=C2Oc3c(C(N)=O)c(O)cc(O)c3[C@]2(C)C1=O [cercosporamide, (9aS)-8-Acetyl-9,9a-dihydro-1,3,7-trihydroxy-9a-methyl-9-oxo-4-dibenzofurancaboxamide] | reduced lipid accumulation
